Target: purified laminin-1 (Homo sapiens, UniProt P07942+P11047+P25391)
Assay: Effects of individual detergents on the neurite-promoting activity of purified laminin
Type: cell-based
Details: dialyzed, neurons 24 hours, FIG. 14
Protocol: FIG. 14. Effects of individual detergents on the neurite-promoting activity of purified laminin. Purified laminin-1 was mixed with individual detergents as follows: Control (buffer alone), sulfobetaine-10 (125 mM), sulfobetaine-16 (0.6 mM) and […] (0.14%). The mixtures were extensively dialyzed and then were added to tissue culture wells to form a substratum onto which dissociated neurons were seeded. After 24 hours in culture the length of neurites were measured. Data represent the specific activities (ED50) calculated from mean scores from dilution series performed in duplicates in 4 separate experiments
The extracellular matrix of nerve is known to promote the growth of axons. In particular, the basal lamina tubes encasing axons provides a potent stimulus for axonal growth in nerve regeneration. The cryoculture assay used in the experiments described above relies on the structure and growth-promoting activity of the basal lamina. It is well documented that laminin is the major neurite-promoting component of the nerve basal lamina. […] Therefore, tests were performed to examine the effects of individual detergents on purified laminin. Laminin activity was unchanged by SB-10. Exposure to SB-16 reduced laminin activity approximately 50%.

laminin neurite-promoting activity after exposure to detergent (SB-10 125 mM, SB-16 0.6 mM, Triton X-200 0.14%)	reduction of laminin activity (sulfobetaine-16 0.6 mM)	SMILES
unchanged	–	CCCCCCCCCC[N+](C)(C)CCCS(=O)(=O)[O-] [SB-10, sulfobetaine-10]
–	approximately 50%	CCCCCCCCCCCCCCCC[N+](C)(C)CCCS(=O)(=O)[O-] [SB-16, sulfobetaine-16]
